According to BindingDB's records for doi:10.1016/s0014-2999(03)02008-9 (Harvard University, 2003):

Key:
[1] = target: T1, Alpha-2C adrenergic receptor (Rattus norvegicus, UniProt P22086)
T1 sequence (P22086 whole entry): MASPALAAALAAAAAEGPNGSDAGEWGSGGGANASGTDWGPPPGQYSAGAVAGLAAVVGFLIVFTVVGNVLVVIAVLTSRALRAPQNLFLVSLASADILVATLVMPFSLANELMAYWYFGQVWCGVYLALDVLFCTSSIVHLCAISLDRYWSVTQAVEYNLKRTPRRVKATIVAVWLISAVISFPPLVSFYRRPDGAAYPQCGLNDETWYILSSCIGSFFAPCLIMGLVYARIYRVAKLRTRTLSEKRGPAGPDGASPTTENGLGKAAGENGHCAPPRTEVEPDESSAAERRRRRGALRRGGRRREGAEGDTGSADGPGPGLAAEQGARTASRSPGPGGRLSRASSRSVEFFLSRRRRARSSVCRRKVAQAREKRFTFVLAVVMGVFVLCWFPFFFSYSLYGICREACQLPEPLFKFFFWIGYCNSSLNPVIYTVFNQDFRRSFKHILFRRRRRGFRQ

[2] = target: 5-hydroxytryptamine receptor 2A (Rattus norvegicus, UniProt P14842)
5-hydroxytryptamine receptor 2A, sequence (P14842 whole entry): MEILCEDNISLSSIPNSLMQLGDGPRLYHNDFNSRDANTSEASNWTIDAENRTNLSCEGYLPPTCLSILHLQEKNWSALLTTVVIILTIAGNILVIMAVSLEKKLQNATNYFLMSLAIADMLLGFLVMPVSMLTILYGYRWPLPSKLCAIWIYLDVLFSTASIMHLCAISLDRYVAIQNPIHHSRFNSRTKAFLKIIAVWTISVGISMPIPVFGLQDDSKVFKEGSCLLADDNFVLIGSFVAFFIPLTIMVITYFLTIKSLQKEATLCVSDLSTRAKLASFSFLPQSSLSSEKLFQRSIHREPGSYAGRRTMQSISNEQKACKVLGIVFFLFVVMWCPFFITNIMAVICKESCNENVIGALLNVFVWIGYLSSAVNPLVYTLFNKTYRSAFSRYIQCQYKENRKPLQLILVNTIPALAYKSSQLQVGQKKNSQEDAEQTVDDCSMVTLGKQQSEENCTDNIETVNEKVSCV

D(1A) dopamine receptor = D(1A) dopamine receptor (Rattus norvegicus, UniProt P18901)
D(1A) dopamine receptor, sequence (P18901 whole entry): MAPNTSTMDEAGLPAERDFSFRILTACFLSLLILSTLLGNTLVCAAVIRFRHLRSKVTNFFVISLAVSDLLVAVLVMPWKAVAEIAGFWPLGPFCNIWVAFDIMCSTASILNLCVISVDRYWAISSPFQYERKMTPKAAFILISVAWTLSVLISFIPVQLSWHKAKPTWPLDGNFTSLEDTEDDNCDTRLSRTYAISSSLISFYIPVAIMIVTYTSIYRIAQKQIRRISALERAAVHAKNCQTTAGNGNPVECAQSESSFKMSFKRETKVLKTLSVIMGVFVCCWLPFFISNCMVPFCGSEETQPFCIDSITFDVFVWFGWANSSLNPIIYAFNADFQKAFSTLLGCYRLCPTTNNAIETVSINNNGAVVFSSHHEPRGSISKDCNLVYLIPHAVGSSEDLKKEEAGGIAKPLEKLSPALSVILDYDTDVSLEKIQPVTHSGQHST

D(2) dopamine receptor = D(2) dopamine receptor (Rattus norvegicus, UniProt P61169)
D(2) dopamine receptor, sequence (P61169 whole entry): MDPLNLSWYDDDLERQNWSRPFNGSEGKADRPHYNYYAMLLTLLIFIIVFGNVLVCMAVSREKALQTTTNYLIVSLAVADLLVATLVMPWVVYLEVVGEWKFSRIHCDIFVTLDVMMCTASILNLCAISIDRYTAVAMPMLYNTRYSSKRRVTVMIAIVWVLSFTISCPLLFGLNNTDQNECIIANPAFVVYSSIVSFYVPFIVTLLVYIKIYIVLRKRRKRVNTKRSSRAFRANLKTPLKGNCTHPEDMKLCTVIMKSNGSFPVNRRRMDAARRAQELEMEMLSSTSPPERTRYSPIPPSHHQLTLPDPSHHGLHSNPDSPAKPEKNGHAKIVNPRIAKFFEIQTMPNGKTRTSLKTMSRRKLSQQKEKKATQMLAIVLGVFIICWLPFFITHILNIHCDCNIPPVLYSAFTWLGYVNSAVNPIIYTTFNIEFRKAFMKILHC

D(1B) dopamine receptor = D(1B) dopamine receptor (Homo sapiens, UniProt P21918)
D(1B) dopamine receptor, sequence (P21918 whole entry): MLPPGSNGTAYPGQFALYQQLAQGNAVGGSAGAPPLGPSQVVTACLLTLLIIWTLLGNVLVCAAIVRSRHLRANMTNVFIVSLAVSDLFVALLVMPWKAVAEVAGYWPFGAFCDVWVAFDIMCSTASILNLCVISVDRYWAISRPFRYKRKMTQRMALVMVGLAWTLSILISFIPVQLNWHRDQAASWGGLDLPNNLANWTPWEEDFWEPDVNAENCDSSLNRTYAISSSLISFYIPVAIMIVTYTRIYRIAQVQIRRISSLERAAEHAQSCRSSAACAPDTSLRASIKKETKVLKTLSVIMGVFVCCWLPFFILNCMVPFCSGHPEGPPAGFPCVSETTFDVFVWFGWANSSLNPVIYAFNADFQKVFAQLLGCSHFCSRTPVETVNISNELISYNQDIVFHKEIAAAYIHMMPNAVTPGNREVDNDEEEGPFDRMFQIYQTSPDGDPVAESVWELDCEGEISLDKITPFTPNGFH

[3] = target: T2, Solute carrier family 22 member 2 (Rattus norvegicus, UniProt Q9R0W2)
T2 sequence (Q9R0W2 whole entry): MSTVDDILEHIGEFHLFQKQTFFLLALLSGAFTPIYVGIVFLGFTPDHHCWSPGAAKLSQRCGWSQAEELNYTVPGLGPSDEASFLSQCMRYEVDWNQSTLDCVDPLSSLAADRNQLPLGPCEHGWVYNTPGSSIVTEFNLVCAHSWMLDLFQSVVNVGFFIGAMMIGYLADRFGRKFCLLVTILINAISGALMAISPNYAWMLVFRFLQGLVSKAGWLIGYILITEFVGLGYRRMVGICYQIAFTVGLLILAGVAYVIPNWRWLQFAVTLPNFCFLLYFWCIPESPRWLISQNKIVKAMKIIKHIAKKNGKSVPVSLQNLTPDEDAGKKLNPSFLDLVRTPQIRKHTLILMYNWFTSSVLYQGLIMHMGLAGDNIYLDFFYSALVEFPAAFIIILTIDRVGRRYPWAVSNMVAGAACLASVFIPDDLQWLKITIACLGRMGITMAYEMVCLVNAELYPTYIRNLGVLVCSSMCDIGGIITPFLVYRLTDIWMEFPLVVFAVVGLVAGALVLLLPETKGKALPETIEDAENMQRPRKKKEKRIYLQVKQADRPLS

| Compound | Ki [1] | Ki [2] | Ki (D(1A) dopamine receptor) | Ki (D(2) dopamine receptor) | Ki (D(1B) dopamine receptor) | Ki [3] |
| --- | --- | --- | --- | --- | --- | --- |
| C=CCN1CCc2cc(O)c(O)cc2C(c2ccccc2)C1 (stereo not drawn) | 632 nM | 3000 nM | – | – | – | – |
| Cc1cccc([C@H]2CN(C)CCc3c2cc(O)c(O)c3Cl)c1 | 295 nM | 266 nM | 1.18 nM | 920 nM | 7.56 nM | – |
| Oc1cc2c(cc1O)C(c1ccccc1)CNCC2 (racemic) [(+/-)-SKF-38393] | 248 nM | > 10000 nM | – | – | – | – |
| C=CCN1CCc2c(cc(O)c(O)c2Cl)C(c2ccccc2)C1 (racemic) [SKF 82958] | 558 nM | 1610 nM | – | – | – | – |
| C=CCN1CCc2c(cc(O)c(O)c2Br)C(c2ccccc2C(F)(F)F)C1 (stereo not drawn) [MCL-217] | > 10000 nM | > 10000 nM | > 10000 nM | > 10000 nM | – | – |
| Cc1cccc([C@@H]2CN(C)CCc3c(Cl)cc(O)cc32)c1 [MCL-230A] | – | – | > 10000 nM | – | – | – |
| Cc1ccccc1C1CN(C)CCc2c1cc(O)c(O)c2Cl (stereo not drawn) [NSC_0] | 66.6 nM | 70.6 nM | 0.46 nM | – | 2.32 nM | – |
| Oc1cc2c(c(Cl)c1O)CCNCC2c1ccccc1 (stereo not drawn) [NSC_1218] | 509 nM | 995 nM | – | – | – | – |
| CN1CCc2cc(Cl)c(O)cc2C(c2ccccc2)C1 (stereo not drawn) [NSC_5018] | 208 nM | 10.8 nM | – | – | – | – |

Second part, the compound after the results:

| Ki [1] | Ki [2] | Ki (D(1A) dopamine receptor) | Ki (D(2) dopamine receptor) | Ki (D(1B) dopamine receptor) | Ki [3] | Compound |
| --- | --- | --- | --- | --- | --- | --- |
| 632 nM | – | 21.3 nM | 2140 nM | – | – | Cc1cccc([C@H]2CN(C)CCc3c2cc(O)c(O)c3Cl)c1 [MCL-201] |
| – | 88.6 nM | 0.49 nM | 515 nM | 1.53 nM | 3000 nM | Cc1cccc([C@@H]2CN(C)CCc3c2cc(O)c(O)c3Cl)c1 [MCL-202] |
| 461 nM | 224 nM | 0.19 nM | 440 nM | 2.47 nM | – | Cc1cccc([C@@H]2CN(C)CCc3c2cc(O)c(O)c3Br)c1 [MCL-203] |
| 709 nM | 598 nM | 0.11 nM | 83.8 nM | 12 nM | – | C=CCN1CCc2c(cc(O)c(O)c2Br)C(c2cccc(C)c2)C1 (stereo not drawn) [MCL-204] |
| 338 nM | 1300 nM | 4.41 nM | 1070 nM | 13.7 nM | – | Cc1cccc(C2CNCCc3c2cc(O)c(O)c3Br)c1 (stereo not drawn) [MCL-205] |
| 250 nM | 147 nM | 1.93 nM | 362 nM | 3.96 nM | – | Cc1ccc(C2CN(C)CCc3c2cc(O)c(O)c3Cl)cc1 (stereo not drawn) [MCL-206] |
| 240 nM | 1200 nM | 0.6 nM | 5000 nM | 0.88 nM | – | Cc1cccc(C2CNCCc3c2cc(O)c(O)c3Cl)c1 (stereo not drawn) [MCL-209] |
| 877 nM | 995 nM | 0.52 nM | 119 nM | 9.94 nM | – | C=CCN1CCc2c(cc(O)c(O)c2Cl)C(c2cccc(C)c2)C1 (stereo not drawn) [MCL-210] |
| 365 nM | 68.9 nM | 8.66 nM | 1050 nM | – | – | CN1CCc2c(cc(O)c(O)c2Br)[C@H](c2cccc(C(F)(F)F)c2)C1 [MCL-211] |
| 493 nM | 124 nM | 19.3 nM | 1030 nM | 4.36 nM | – | Cc1ccc(C2CN(C)CCc3c2cc(O)c(O)c3Br)cc1 (stereo not drawn) [MCL-212] |
| 1090 nM | 977 nM | 128 nM | 1700 nM | – | – | C=CCN1CCc2c(cc(O)c(O)c2Br)C(c2ccc(C)cc2)C1 (stereo not drawn) [MCL-213] |
| 186 nM | 45.8 nM | 1.1 nM | 409 nM | 3.42 nM | – | Cc1ccccc1C1CN(C)CCc2c1cc(O)c(O)c2Br (stereo not drawn) [MCL-214] |
| 414 nM | 742 nM | 37.1 nM | 239 nM | – | – | C=CCN1CCc2c(cc(O)c(O)c2Br)C(c2ccccc2C)C1 (stereo not drawn) [MCL-215] |
| 133 nM | 398 nM | 1.81 nM | 19.5 nM | 1.95 nM | – | Cc1ccccc1C1CNCCc2c1cc(O)c(O)c2Br (stereo not drawn) [MCL-216] |
| 776 nM | 992 nM | 1240 nM | > 10000 nM | – | – | Oc1cc2c(c(Br)c1O)CCNC[C@H]2c1cccc(C(F)(F)F)c1 [MCL-218] |
